Like-named read-outs stand apart in the source and are kept apart here.
Columns and labels:
[1] = Stability test of esomeprazole and omeprazole according to pH; format: physicochemical; conditions: in % (unit assumed)
Protocol: <Analysis method> A) Detector: UV-Visible spectrophotometer (measurement wavelength:280 nm) B) Column: Inertsil C8-3 (4.6×150 mm, 5 μm) or equivalent column C) Injection amount: 20 μl D) Flow rate: 1.5 mL/min E) Column temperature: Constant temperature near 40° C. F) Sample temperature: Constant temperature near 10° C. […] H) Mobile phase: […] The buffer solution at pH 7.6 was prepared as follows: 0.725 g of sodium dihydrogen phosphate monohydrate (NaH2PO4.H2O) and 4.472 g of anhydrous disodium hydrogen phosphate (Na2HPO4) were weighed to be put in an 1 L volumetric flask and dissolved in purified water, followed by filling the flask with purified water up to the calibration mark. 250 mL of the liquid was taken to be put in an 1 L volumetric flask, followed by filling the flask with purified water up to the calibration mark and adjusting the pH to 7.6 with phosphoric acid.

[2] = for pH of simulated gastric juice: 200 mL simulated gastric juice + 200 mL purified water, 37° C.
Protocol: A pH was measured according to the change of the dose of sodium bicarbonate in a solution (37° C.) where 200 mL of purified water was put in 200 mL of simulated gastric juice.

## COc1ccc2[nH]c([S+]([O-])Cc3ncc(C)c(OC)c3C)nc2c1 (centres unmarked) [Omeprazole, 5-methoxy-2-[(4-methoxy-3,5-dimethyl-2-pyridinyl)methyl]sulfinyl-1H-benzimidazol]
[1]; buffer pH 4.0, 5 min
  assay of esomeprazole and omeprazole according to pH: 57.2
[1]; buffer pH 4.0, 10 min
  assay of esomeprazole and omeprazole according to pH: 29.4
[1]; buffer pH 4.0, 15 min
  assay of esomeprazole and omeprazole according to pH: 15.3
[1]; buffer pH 4.0, 30 min
  assay of esomeprazole and omeprazole according to pH: 6.7
[1]; buffer pH 4.0, 45 min
  assay of esomeprazole and omeprazole according to pH: 1.6
[1]; buffer pH 4.0, 60 min
  assay of esomeprazole and omeprazole according to pH: 0.8
[1]; buffer pH 4.0, 120 min
  assay of esomeprazole and omeprazole according to pH: 0.1
[1]; buffer pH 6.0, 5 min
  assay of esomeprazole and omeprazole according to pH: 74.9
[1]; buffer pH 6.0, 10 min
  assay of esomeprazole and omeprazole according to pH: 74.2
[1]; buffer pH 6.0, 15 min
  assay of esomeprazole and omeprazole according to pH: 71.7
[1]; buffer pH 6.0, 30 min
  assay of esomeprazole and omeprazole according to pH: 69.6
[1]; buffer pH 6.0, 45 min
  assay of esomeprazole and omeprazole according to pH: 65.4
[1]; buffer pH 6.0, 60 min
  assay of esomeprazole and omeprazole according to pH: 64.1
[1]; buffer pH 6.0, 120 min
  assay of esomeprazole and omeprazole according to pH: 55.1
[1]; buffer pH 6.8, 5 min
  assay of esomeprazole and omeprazole according to pH: 91.5
[1]; buffer pH 6.8, 10 min
  assay of esomeprazole and omeprazole according to pH: 90.5
[1]; buffer pH 6.8, 15 min
  assay of esomeprazole and omeprazole according to pH: 89.9
[1]; buffer pH 6.8, 30 min
  assay of esomeprazole and omeprazole according to pH: 89.8
[1]; buffer pH 6.8, 45 min
  assay of esomeprazole and omeprazole according to pH: 88.8
[1]; buffer pH 6.8, 60 min
  assay of esomeprazole and omeprazole according to pH: 88.3
[1]; buffer pH 6.8, 120 min
  assay of esomeprazole and omeprazole according to pH: 85.5
[1]; buffer pH 7.0, 5 min
  assay of esomeprazole and omeprazole according to pH: 100.5
[1]; buffer pH 7.0, 10 min
  assay of esomeprazole and omeprazole according to pH: 99.0
[1]; buffer pH 7.0, 15 min
  assay of esomeprazole and omeprazole according to pH: 98.9
[1]; buffer pH 7.0, 30 min
  assay of esomeprazole and omeprazole according to pH: 98.2
[1]; buffer pH 7.0, 45 min
  assay of esomeprazole and omeprazole according to pH: 97.9
[1]; buffer pH 7.0, 60 min
  assay of esomeprazole and omeprazole according to pH: 97.5
[1]; buffer pH 7.0, 120 min
  assay of esomeprazole and omeprazole according to pH: 95.8
[1]; buffer pH 7.3, 5 min
  assay of esomeprazole and omeprazole according to pH: 99.8
[1]; buffer pH 7.3, 10 min
  assay of esomeprazole and omeprazole according to pH: 100.0
[1]; buffer pH 7.3, 15 min
  assay of esomeprazole and omeprazole according to pH: 99.9
[1]; buffer pH 7.3, 30 min
  assay of esomeprazole and omeprazole according to pH: 99.8
[1]; buffer pH 7.3, 45 min
  assay of esomeprazole and omeprazole according to pH: 99.8
[1]; buffer pH 7.3, 60 min
  assay of esomeprazole and omeprazole according to pH: 99.8
[1]; buffer pH 7.3, 120 min
  assay of esomeprazole and omeprazole according to pH: 99.86
[1]; buffer pH 7.5, 5 min
  assay of esomeprazole and omeprazole according to pH: 100.5
[1]; buffer pH 7.5, 10 min
  assay of esomeprazole and omeprazole according to pH: 99.7
[1]; buffer pH 7.5, 15 min
  assay of esomeprazole and omeprazole according to pH: 99.7
[1]; buffer pH 7.5, 30 min
  assay of esomeprazole and omeprazole according to pH: 99.4
[1]; buffer pH 7.5, 45 min
  assay of esomeprazole and omeprazole according to pH: 99.2
[1]; buffer pH 7.5, 60 min
  assay of esomeprazole and omeprazole according to pH: 98.9
[1]; buffer pH 7.5, 120 min
  assay of esomeprazole and omeprazole according to pH: 98.2
[1]; buffer pH 8.0, 15 min
  assay of esomeprazole and omeprazole according to pH: 99.7
[1]; buffer pH 8.0, 30 min
  assay of esomeprazole and omeprazole according to pH: 99.6
[1]; buffer pH 8.0, 45 min
  assay of esomeprazole and omeprazole according to pH: 99.5
[1]; buffer pH 8.0, 60 min
  assay of esomeprazole and omeprazole according to pH: 99.5
[1]; buffer pH 8.0, 120 min
  assay of esomeprazole and omeprazole according to pH: 98.6

## O=C([O-])O.[Na+] [sodium bi-carbonate, sodium bicarbonate]
[2]; 200 mL simulated gastric juice
  dose of sodium bicarbonate that can neutralize 200 mL of simulated gastric juice to show neutral pH: at least 600 mg
[2]; sodium bicarbonate 500 mg
  pH of simulated gastric juice: 5.77
[2]; sodium bicarbonate 600 mg
  pH of simulated gastric juice: 6.51
[2]; sodium bicarbonate 700 mg
  pH of simulated gastric juice: 7.30
[2]; sodium bicarbonate 800 mg
  pH of simulated gastric juice: 7.30
[2]; sodium bicarbonate 900 mg
  pH of simulated gastric juice: 7.31
[2]; sodium bicarbonate 1,000 mg
  pH of simulated gastric juice: 7.37
[2]; sodium bicarbonate 1,100 mg
  pH of simulated gastric juice: 7.38
[2]; sodium bicarbonate 1,200 mg
  pH of simulated gastric juice: 7.38
[2]; sodium bicarbonate 1,300 mg
  pH of simulated gastric juice: 7.40

## COc1ccc2[nH]c([S@@+]([O-])Cc3ncc(C)c(OC)c3C)nc2c1 [S-omeprazole, (S)-5-methoxy-2-[(4-methoxy-3,5-dimethyl-2-pyridinyl)-methyl]sulfinyl-1H-benzimidazol]
[1]; buffer pH 4.0, 5 min
  assay of esomeprazole and omeprazole according to pH: 64.1
[1]; buffer pH 4.0, 10 min
  assay of esomeprazole and omeprazole according to pH: 31.0
[1]; buffer pH 4.0, 15 min
  assay of esomeprazole and omeprazole according to pH: 15.9
[1]; buffer pH 4.0, 30 min
  assay of esomeprazole and omeprazole according to pH: 6.9
[1]; buffer pH 4.0, 45 min
  assay of esomeprazole and omeprazole according to pH: 1.7
[1]; buffer pH 4.0, 60 min
  assay of esomeprazole and omeprazole according to pH: 0.9
[1]; buffer pH 4.0, 120 min
  assay of esomeprazole and omeprazole according to pH: 0.1
[1]; buffer pH 6.0, 5 min
  assay of esomeprazole and omeprazole according to pH: 74.4
[1]; buffer pH 6.0, 10 min
  assay of esomeprazole and omeprazole according to pH: 72.8
[1]; buffer pH 6.0, 15 min
  assay of esomeprazole and omeprazole according to pH: 71.0
[1]; buffer pH 6.0, 30 min
  assay of esomeprazole and omeprazole according to pH: 68.9
[1]; buffer pH 6.0, 45 min
  assay of esomeprazole and omeprazole according to pH: 66.3
[1]; buffer pH 6.0, 60 min
  assay of esomeprazole and omeprazole according to pH: 63.6
[1]; buffer pH 6.0, 120 min
  assay of esomeprazole and omeprazole according to pH: 54.9
[1]; buffer pH 6.8, 5 min
  assay of esomeprazole and omeprazole according to pH: 95.6
[1]; buffer pH 6.8, 10 min
  assay of esomeprazole and omeprazole according to pH: 90.8
[1]; buffer pH 6.8, 15 min
  assay of esomeprazole and omeprazole according to pH: 90.5
[1]; buffer pH 6.8, 30 min
  assay of esomeprazole and omeprazole according to pH: 89.7
[1]; buffer pH 6.8, 45 min
  assay of esomeprazole and omeprazole according to pH: 88.9
[1]; buffer pH 6.8, 60 min
  assay of esomeprazole and omeprazole according to pH: 88.3
[1]; buffer pH 6.8, 120 min
  assay of esomeprazole and omeprazole according to pH: 86.2
[1]; buffer pH 7.0, 5 min
  assay of esomeprazole and omeprazole according to pH: 99.6
[1]; buffer pH 7.0, 10 min
  assay of esomeprazole and omeprazole according to pH: 99.0
[1]; buffer pH 7.0, 15 min
  assay of esomeprazole and omeprazole according to pH: 99.3
[1]; buffer pH 7.0, 30 min
  assay of esomeprazole and omeprazole according to pH: 98.9
[1]; buffer pH 7.0, 45 min
  assay of esomeprazole and omeprazole according to pH: 98.7
[1]; buffer pH 7.0, 60 min
  assay of esomeprazole and omeprazole according to pH: 98.1
[1]; buffer pH 7.0, 120 min
  assay of esomeprazole and omeprazole according to pH: 96.8
[1]; buffer pH 7.3, 5 min
  assay of esomeprazole and omeprazole according to pH: 100.1
[1]; buffer pH 7.3, 10 min
  assay of esomeprazole and omeprazole according to pH: 100.1
[1]; buffer pH 7.3, 15 min
  assay of esomeprazole and omeprazole according to pH: 100.0
[1]; buffer pH 7.3, 30 min
  assay of esomeprazole and omeprazole according to pH: 100.0
[1]; buffer pH 7.3, 45 min
  assay of esomeprazole and omeprazole according to pH: 100.0
[1]; buffer pH 7.3, 60 min
  assay of esomeprazole and omeprazole according to pH: 100.0
[1]; buffer pH 7.3, 120 min
  assay of esomeprazole and omeprazole according to pH: 99.90
[1]; buffer pH 7.5, 5 min
  assay of esomeprazole and omeprazole according to pH: 99.4
[1]; buffer pH 7.5, 10 min
  assay of esomeprazole and omeprazole according to pH: 99.3
[1]; buffer pH 7.5, 15 min
  assay of esomeprazole and omeprazole according to pH: 99.2
[1]; buffer pH 7.5, 30 min
  assay of esomeprazole and omeprazole according to pH: 99.1
[1]; buffer pH 7.5, 45 min
  assay of esomeprazole and omeprazole according to pH: 99.3
[1]; buffer pH 7.5, 60 min
  assay of esomeprazole and omeprazole according to pH: 99.1
[1]; buffer pH 7.5, 120 min
  assay of esomeprazole and omeprazole according to pH: 98.2
[1]; buffer pH 8.0, 15 min
  assay of esomeprazole and omeprazole according to pH: 101.1
[1]; buffer pH 8.0, 30 min
  assay of esomeprazole and omeprazole according to pH: 100.9
[1]; buffer pH 8.0, 45 min
  assay of esomeprazole and omeprazole according to pH: 100.7
[1]; buffer pH 8.0, 60 min
  assay of esomeprazole and omeprazole according to pH: 100.7
[1]; buffer pH 8.0, 120 min
  assay of esomeprazole and omeprazole according to pH: 100.0
